Bounds are passed on as bounds.

Experiment [1] relates to M2 mutants and wild-type WSN-UdM viruses. In kind it is cell-based, influenza A virus.
For experiment [2] the test system is unchanged. The settings on record: cited from earlier work.

Take `NC12CC3CC(CC(C3)C1)C2` [amantadine]: the “effect on yield and plaque size of wild-type WSN-UdM virus” value in experiment [1] is reported as “markedly reduced”. Further, the “concentrations at which the drug selectively inhibits viral replication” value in experiment [2] (cell culture (Appleyard, 1977)) is 0.1 to 5 µM. Also, the “concentrations of nonspecific action (increase in pH of endosomes)” value in experiment [2] (cell culture (Daniels et al., 1985)) is listed as greater than 50 μM.

These data come from patent US10119124B2 (priority 2007, dated 2018).
